How the values were obtained:
Type in all cases: in vivo
[1] = tested on: kochia (Kochia scoparia L; KCHSC); assay: Postemergence herbicidal activity, greenhouse, visual injury: kochia; details: for KCHSC Ob (visual injury): 20-22 d
Experimental: (§1) Evaluation of Postemergence Herbicidal Safening in Cereal Crops
(§2) Seeds of the desired test plant species were planted in Sun Gro MetroMix® 306 planting mixture, which typically has a pH of 6.0 to 6.8 and an organic matter content of about 30 percent, in plastic pots with a surface area of 103.2 square centimeters (cm^2). When required to ensure good germination and healthy plants, a fungicide treatment and/or other chemical or physical treatment was applied. The plants were grown for 7-36 days (d) in a greenhouse with an approximate 14-hour (h) photoperiod which was maintained at about 18° C. during the day and 17° C. during the night. Nutrients and water were added on a regular basis and supplemental lighting was provided with overhead metal halide 1000-Watt lamps as necessary. The plants were employed for testing when they reached the second or third true leaf stage.
(§3) Treatments consisted of the acids or esters of compounds 1-10 and cloquintocet-mexyl (CQC-M), fenchlorazole-ethyl, mefenpyr-diethyl alone and in combination. Weighed amounts of acid or methyl esters of the compounds of formula (I) were dissolved in a volume of 97:3 v/v acetone/dimethylsulfoxide (DMSO) to obtain concentrated solutions. […] The concentrated solutions of the test compound were diluted with the addition of an aqueous mixture containing acetone, water, isopropyl alcohol, DMSO, Agri-Dex crop oil concentrate, and Triton® X-77 surfactant in a 64.7:26.0:6.7:2.0:0.7:0.01 v/v ratio. Test compounds were diluted to the appropriate application rate with a dilution solution which was prepared by mixing the appropriate volume of 97:3 v/v acetone/DMSO and the appropriate volume of an aqueous mixture containing acetone, water, isopropyl alcohol, DMSO, Agri-Dex crop oil concentrate, and Triton® X-77 surfactant in a 64.7:26.0:6.7:2.0:0.7:0.01 v/v ratio. Compound requirements are based upon a 12 mL application volume at a rate of 187 liters per hectare (L/ha). The concentrated solutions of the safener were prepared following the same procedure. Weighed amounts of safener were dissolved in a volume of 97:3 v/v acetone/DMSO to obtain concentrated safener solutions.
(§4) Spray solutions of the herbicide safener and test compound mixtures were prepared by adding the concentrated solutions to the appropriate amount of dilution solution to form 12 mL spray solution with active ingredients in combinations.
(§5) Formulated compounds were applied to the plant material with an overhead Mandel track sprayer equipped with 8002E nozzles calibrated to deliver 187 L/ha over an application area of 0.503 square meters (m^2) at a spray height of 18 inches (43 centimeters (cm)) above average plant canopy. Control plants were sprayed in the same manner with the solvent blank.
(§6) The treated plants and control plants were placed in a greenhouse as described above and watered by sub-irrigation to prevent wash-off of the test compounds. After 20-22 d, the condition of the test plants as compared with that of the control plants was determined visually and scored on a scale of 0 to 100 percent where 0 corresponds to no injury and 100 corresponds to complete kill.
(§7) Colby's equation was used to determine the herbicidal effects expected from the mixtures (Colby, S. R. Calculation of the synergistic and antagonistic response of herbicide combinations. Weeds 1967, 15, 20-22.).
(§8) The following equation was used to calculate the expected activity of mixtures containing two active ingredients, A and B: Expected=A+B−(A×B/100)
(§9) A=observed efficacy of active ingredient A at the same concentration as used in the mixture.
(§10) B=observed efficacy of active ingredient B at the same concentration as used in the mixture.

[2] = tested on: corn poppy (Papaver rhoeas L; PAPRH); assay: Postemergence herbicidal activity, greenhouse, visual injury: corn poppy; details: for PAPRH Ob (visual injury): 20-22 d
Experimental: as §1, §2, §3, §4, §5, §6, §7, §8, §9, §10

CIRAR = assay: Postemergence herbicidal activity, greenhouse, visual injury: CIRAR; details: for CIRAR Ob (visual injury): 20-22 d
Experimental: as §1, §2, §3, §4, §5, §6, §7, §8, §9, §10

[3] = tested on: durum wheat (Triticum durum L; TRZDU); assay: Postemergence herbicidal safening in cereal crops, greenhouse, visual injury: durum wheat; details: 20-22 d
Experimental: as §1, §2, §3, §4, §5, §6, §7, §8, §9, §10

[4] = tested on: wild pansy (Viola tricolor; VIOTR); assay: Postemergence herbicidal activity, greenhouse, visual injury: VIOTR
[5] = Compound 10 0, CQC-M 8.75 g ae/ha
[6] = Compound 10 0, CQC-M 17.5 g ae/ha
[7] = Compound 10 0, CQC-M 35 g ae/ha
[8] = Compound 10 0, CQC-M 70 g ae/ha
[9] = Compound 10 0, CQC-M 140 g ae/ha

CCCCCC(C)OC(=O)COc1ccc(Cl)c2cccnc12 (stereo not shown) [CQC-M, cloquintocet-mexyl, reference compound]
KCHSC Ob (Observed values, % control) [1, 5]: 0%
KCHSC Ob (Observed values, % control) [1, 6]: 0%
KCHSC Ob (Observed values, % control) [1, 7]: 0%
KCHSC Ob (Observed values, % control) [1, 8]: 0%
KCHSC Ob (Observed values, % control) [1, 9]: 0%
KCHSC Ob (visual injury) ([1]; safener alone 8.75 g/ha): 0%
KCHSC Ob (visual injury) ([1]; safener alone 70 g/ha): 0%
KCHSC Ob (visual injury) ([1]; safener alone 140 g/ha): 0%
PAPRH Ob (Observed values, % control) [2, 5]: 0%
PAPRH Ob (Observed values, % control) [2, 6]: 0%
PAPRH Ob (Observed values, % control) [2, 7]: 0%
PAPRH Ob (Observed values, % control) [2, 8]: 0%
PAPRH Ob (Observed values, % control) [2, 9]: 0%
PAPRH Ob (visual injury) ([2]; safener alone 8.75 g/ha): 0%
PAPRH Ob (visual injury) ([2]; safener alone 70 g/ha): 0%
PAPRH Ob (visual injury) ([2]; safener alone 140 g/ha): 0%
CIRAR Ob (Observed values, % control) (CIRAR; [5]): 0%
CIRAR Ob (Observed values, % control) (CIRAR; [6]): 0%
CIRAR Ob (Observed values, % control) (CIRAR; [7]): 0%
CIRAR Ob (Observed values, % control) (CIRAR; [8]): 0%
CIRAR Ob (Observed values, % control) (CIRAR; [9]): 0%
CIRAR Ob (visual injury) (CIRAR; safener alone 70 g/ha): 0%
CIRAR Ob (visual injury) (CIRAR; safener alone 140 g/ha): 0%
TRZDU Ob (visual injury) ([3]; safener alone 0.547 g/ha): 0%
TRZDU Ob (visual injury) ([3]; safener alone 2.1875 g/ha): 0%
TRZDU Ob (visual injury) ([3]; safener alone 8.75 g/ha): 0%
TRZDU Ob (visual injury) ([3]; safener alone 35 g/ha): 0%
TRZDU Ob (visual injury) ([3]; safener alone 70 g/ha): 15%
TRZDU Ob (visual injury) ([3]; safener alone 140 g/ha): 20%
VIOTR Ob (Observed values, % control) [4, 5]: 0%
VIOTR Ob (Observed values, % control) [4, 6]: 0%
VIOTR Ob (Observed values, % control) [4, 7]: 0%
VIOTR Ob (Observed values, % control) [4, 8]: 0%
VIOTR Ob (Observed values, % control) [4, 9]: 0%
